Source: the Kinase Knowledgebase extract (Sharma et al. 2016)

Target: ROCK2 (human) (UniProt O75116)
Assay: Inhibition of ROCK2 Kinase Activity

ROCK2 (human), sequence (O75116 whole entry, looked up): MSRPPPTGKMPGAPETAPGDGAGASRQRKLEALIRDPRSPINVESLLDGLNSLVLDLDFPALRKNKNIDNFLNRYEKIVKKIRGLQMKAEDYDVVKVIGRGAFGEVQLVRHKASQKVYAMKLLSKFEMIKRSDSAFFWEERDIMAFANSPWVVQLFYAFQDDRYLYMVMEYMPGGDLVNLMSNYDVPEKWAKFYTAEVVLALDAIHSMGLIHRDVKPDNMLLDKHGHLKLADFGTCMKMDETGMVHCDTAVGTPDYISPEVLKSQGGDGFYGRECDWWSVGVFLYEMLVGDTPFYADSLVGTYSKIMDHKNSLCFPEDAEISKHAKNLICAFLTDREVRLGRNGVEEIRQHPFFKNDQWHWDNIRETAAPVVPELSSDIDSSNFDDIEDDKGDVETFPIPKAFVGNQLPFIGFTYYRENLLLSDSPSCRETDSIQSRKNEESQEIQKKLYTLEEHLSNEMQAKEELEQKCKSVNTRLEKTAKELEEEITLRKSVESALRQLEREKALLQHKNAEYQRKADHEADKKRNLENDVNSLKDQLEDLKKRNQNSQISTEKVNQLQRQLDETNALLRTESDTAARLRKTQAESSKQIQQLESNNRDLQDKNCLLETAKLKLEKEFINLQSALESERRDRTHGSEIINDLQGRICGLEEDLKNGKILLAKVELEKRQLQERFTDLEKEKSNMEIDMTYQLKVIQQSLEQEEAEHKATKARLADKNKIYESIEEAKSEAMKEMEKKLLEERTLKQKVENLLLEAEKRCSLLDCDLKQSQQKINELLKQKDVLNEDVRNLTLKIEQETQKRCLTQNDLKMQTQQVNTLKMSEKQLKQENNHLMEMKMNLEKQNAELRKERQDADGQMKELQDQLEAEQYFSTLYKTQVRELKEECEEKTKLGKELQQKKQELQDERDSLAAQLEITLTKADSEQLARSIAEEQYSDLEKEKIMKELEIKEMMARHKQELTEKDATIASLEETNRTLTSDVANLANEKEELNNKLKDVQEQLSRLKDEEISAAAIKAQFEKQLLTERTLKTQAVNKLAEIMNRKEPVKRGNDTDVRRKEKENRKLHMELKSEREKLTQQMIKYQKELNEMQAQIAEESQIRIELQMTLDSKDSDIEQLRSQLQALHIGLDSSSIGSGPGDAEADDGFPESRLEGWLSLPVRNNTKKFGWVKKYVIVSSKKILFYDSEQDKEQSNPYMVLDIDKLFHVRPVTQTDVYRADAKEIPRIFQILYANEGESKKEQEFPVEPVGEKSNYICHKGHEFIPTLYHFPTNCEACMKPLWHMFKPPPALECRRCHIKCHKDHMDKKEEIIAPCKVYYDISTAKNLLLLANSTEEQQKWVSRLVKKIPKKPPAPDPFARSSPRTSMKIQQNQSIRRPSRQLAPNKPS

Row | SMILES | IC50
1 | NC(CNC(=O)c1ccoc1)c1ccc(C(=O)Nc2ccncc2)cc1 (stereo unspecified) | 50 to 500 nM
2 | NC(CNC(=O)c1cnccn1)c1ccc(C(=O)Nc2ccncc2)cc1 (stereo unspecified) | 500 to 5000 nM
3 | NC(c1ccc(C(=O)Nc2ccncc2)cc1)C1CCCN1C(=O)C1(c2ccc(F)c(F)c2)CCCC1 (stereo unspecified) | 500 to 5000 nM
4 | CN(CC(N)c1ccc(C(=O)Nc2ccncc2)cc1)C(=O)Cc1cccc(Br)c1 (stereo unspecified) | 500 to 5000 nM
5 | CC(C)(C(=O)NCC(N)c1ccc(C(=O)Nc2ccncc2)cc1)c1ccc(F)cc1F (stereo unspecified) | 50 to 500 nM
6 | NC(CNC(=O)CCC1CCCCC1)c1ccc(C(=O)Nc2ccncc2)cc1 (stereo unspecified) | 50 to 500 nM
7 | CN(CC(N)c1ccc(C(=O)Nc2ccncc2)cc1)C(=O)Cc1cccc2ccccc12 (stereo unspecified) | 500 to 5000 nM
8 | NC(CNC(=O)c1ccccc1Oc1ccccc1)c1ccc(C(=O)Nc2ccncc2)cc1 (stereo unspecified) | 500 to 5000 nM
9 | NC(c1ccc(C(=O)Nc2ccncc2)cc1)C1CCCN1C(=O)Cc1ccc(-c2ccccc2)cc1 (stereo unspecified) | 500 to 5000 nM
10 | NC(CC(=O)NCCc1ccc(Cl)cc1)c1ccc(C(=O)Nc2ccncc2)cc1 (stereo unspecified) | 50 to 500 nM
11 | CC(C)C(C)NC(=O)CC(N)c1ccc(C(=O)Nc2ccncc2)cc1 (stereo unspecified) | 50 to 500 nM
12 | NC(CC(=O)Nc1ccc2cc[nH]c2c1)c1ccc(C(=O)Nc2ccncc2)cc1 (stereo unspecified) | 50 to 500 nM
13 | NC(CNC(=O)Cc1cccc(Cl)c1)c1ccc(C(=O)Nc2ccncc2)cc1 (stereo unspecified) | 50 to 500 nM
14 | N[C@H](CC(=O)N[C@@H]1COc2ccccc21)c1ccc(C(=O)Nc2ccncc2)cc1 | < 50 nM
15 | CC(C)(C(=O)N1CCCC1C(N)c1ccc(C(=O)Nc2ccncc2)cc1)c1ccc(F)c(Cl)c1 (stereo unspecified) | 500 to 5000 nM
16 | CN(CC(N)c1ccc(C(=O)Nc2ccncc2)cc1)C(=O)C1(c2ccsc2)CC1 (stereo unspecified) | 500 to 5000 nM
17 | Cc1ccc(CN2CCC(NC(=O)CC(N)c3ccc(C(=O)Nc4ccncc4)cc3)CC2)s1 (stereo unspecified) | 50 to 500 nM
18 | NC(c1ccc(C(=O)Nc2ccncc2)cc1)C1CCCN1C(=O)C1(c2ccc(F)c(F)c2)CC1 (stereo unspecified) | 500 to 5000 nM
19 | NC(CC(=O)NCc1cccc(C(F)(F)F)c1)c1ccc(C(=O)Nc2ccncc2)cc1 (stereo unspecified) | 50 to 500 nM
20 | CN(CC(N)c1ccc(C(=O)Nc2ccncc2)cc1)C(=O)C1(c2ccc(F)c(F)c2)CCCC1 (stereo unspecified) | 500 to 5000 nM
21 | NC(CNC(=O)Cc1ccccn1)c1ccc(C(=O)Nc2ccncc2)cc1 (stereo unspecified) | 500 to 5000 nM
22 | NC(CC(=O)NCc1ccc(F)cc1Cl)c1ccc(C(=O)Nc2ccncc2)cc1 (stereo unspecified) | 50 to 500 nM
23 | CN(CC(N)c1ccc(C(=O)Nc2ccncc2)cc1)C(=O)C1CCCc2ccccc21 (stereo unspecified) | 500 to 5000 nM
24 | NC(CNC(=O)Cc1c[nH]c2ccccc12)c1ccc(C(=O)Nc2ccncc2)cc1 (stereo unspecified) | 50 to 500 nM
25 | N[C@H](CC(=O)N[C@@H]1CCCc2ccccc21)c1ccc(C(=O)Nc2ccncc2)cc1 | < 50 nM
26 | CC(C)(C)c1ccc(CCNC(=O)CC(N)c2ccc(C(=O)Nc3ccncc3)cc2)cc1 (stereo unspecified) | 50 to 500 nM

Row | SMILES | IC50
27 | NC(CNC(=O)C(c1ccccc1)C1CCCC1)c1ccc(C(=O)Nc2ccncc2)cc1 (stereo unspecified) | 500 to 5000 nM
28 | NC(CC(=O)N[C@@H]1CCc2ccccc21)c1ccc(C(=O)Nc2ccncc2)cc1 (stereo partly specified) | 50 to 500 nM
29 | NC(CC(=O)NCc1ccc(C(F)(F)F)c(F)c1)c1ccc(C(=O)Nc2ccncc2)cc1 (stereo unspecified) | 50 to 500 nM
30 | NC(c1ccc(C(=O)Nc2ccncc2)cc1)C1CCCN1C(=O)C1(c2ccc(Cl)c(Cl)c2)CCC1 (stereo unspecified) | 500 to 5000 nM
31 | NC(c1ccc(C(=O)Nc2ccncc2)cc1)C1CCCN1C(=O)Cc1cccc2ccccc12 (stereo unspecified) | 500 to 5000 nM
32 | CCOCC(=O)NCC(N)c1ccc(C(=O)Nc2ccncc2)cc1 (stereo unspecified) | 500 to 5000 nM
33 | NC(CNC(=O)c1ccc2ncccc2c1)c1ccc(C(=O)Nc2ccncc2)cc1 (stereo unspecified) | 500 to 5000 nM
34 | COc1ccc(Cl)cc1NC(=O)NCC(N)c1ccc(C(=O)Nc2ccncc2)cc1 (stereo unspecified) | 50 to 500 nM
35 | CCCCNNC(=O)CC(N)c1ccc(C(=O)Nc2ccncc2)cc1 (stereo unspecified) | 50 to 500 nM
36 | NC(CC(=O)NCc1cccc(F)c1)c1ccc(C(=O)Nc2ccncc2)cc1 (stereo unspecified) | 50 to 500 nM
37 | CC[C@H](NC(=O)CC(N)c1ccc(C(=O)Nc2ccncc2)cc1)c1ccccc1 (stereo partly specified) | 50 to 500 nM
38 | COc1ccc(NC(=S)NCC(N)c2ccc(C(=O)Nc3ccncc3)cc2)cc1 (stereo unspecified) | 500 to 5000 nM
39 | CN(CC(N)c1ccc(C(=O)Nc2ccncc2)cc1)C(=O)Cc1cc(F)ccc1F (stereo unspecified) | 500 to 5000 nM
40 | NC(CC(=O)NCc1ccccc1C(F)(F)F)c1ccc(C(=O)Nc2ccncc2)cc1 (stereo unspecified) | 50 to 500 nM
41 | NC(c1ccc(C(=O)Nc2ccncc2)cc1)C1CCCN1C(=O)C1CCc2cc(F)ccc21 (stereo unspecified) | 500 to 5000 nM
42 | COc1ccc(CC(=O)N2CCCC2C(N)c2ccc(C(=O)Nc3ccncc3)cc2)cc1 (stereo unspecified) | 50 to 500 nM
43 | CNS(=O)(=O)c1ccc(C(=O)NCC(N)c2ccc(C(=O)Nc3ccncc3)cc2)cc1 (stereo unspecified) | 500 to 5000 nM
44 | NC(CC(=O)Nc1ccccc1)c1ccc(C(=O)Nc2ccncc2)cc1 (stereo unspecified) | 50 to 500 nM
45 | Nc1c(C(=O)NCC(N)c2ccc(C(=O)Nc3ccncc3)cc2)cnn1-c1ccc(F)cc1 (stereo unspecified) | 500 to 5000 nM
46 | NC(CNC(=O)C1(c2ccc(Cl)cc2)CC1)c1ccc(C(=O)Nc2ccncc2)cc1 (stereo unspecified) | 50 to 500 nM
47 | CN(CC(N)c1ccc(C(=O)Nc2ccncc2)cc1)C(=O)C1(c2ccc(Cl)cc2)CCC1 (stereo unspecified) | 500 to 5000 nM
48 | CC(C)(Cc1ccc(F)cc1)NC(=O)CC(N)c1ccc(C(=O)Nc2ccncc2)cc1 (stereo unspecified) | 50 to 500 nM
49 | Cc1ccc(CNC(=O)CC(N)c2ccc(C(=O)Nc3ccncc3)cc2)cc1 (stereo unspecified) | 50 to 500 nM
50 | NC(CNC(=O)CNC(=O)c1ccccc1)c1ccc(C(=O)Nc2ccncc2)cc1 (stereo unspecified) | 50 to 500 nM
51 | CC(C)=NOC(C)C(=O)NCC(N)c1ccc(C(=O)Nc2ccncc2)cc1 (stereo unspecified) | 500 to 5000 nM
52 | NC(CNC(=O)CC1Cc2ccccc2C1)c1ccc(C(=O)Nc2ccncc2)cc1 (stereo unspecified) | 50 to 500 nM

Row | SMILES | IC50
53 | CC(=O)NCC(N)c1ccc(C(=O)Nc2ccncc2)cc1 (stereo unspecified) | 500 to 5000 nM
54 | CCCCNC(=O)NCC(N)c1ccc(C(=O)Nc2ccncc2)cc1 (stereo unspecified) | 500 to 5000 nM
55 | NC(c1ccc(C(=O)Nc2ccncc2)cc1)C1CCCN1C(=O)C1(c2ccc(Cl)cc2)CCCC1 (stereo unspecified) | 500 to 5000 nM
56 | NC(CNC(=O)C1CC1)c1ccc(C(=O)Nc2ccncc2)cc1 (stereo unspecified) | 500 to 5000 nM
57 | CN(CC(N)c1ccc(C(=O)Nc2ccncc2)cc1)C(=O)Cc1ccc(Cl)cc1 (stereo unspecified) | 500 to 5000 nM
58 | Cc1ccc2[nH]cc(CCNC(=O)CC(N)c3ccc(C(=O)Nc4ccncc4)cc3)c2c1 (stereo unspecified) | 50 to 500 nM
59 | NC(CNC(=O)c1nccc2ccccc12)c1ccc(C(=O)Nc2ccncc2)cc1 (stereo unspecified) | 500 to 5000 nM
60 | NC(CNC(=O)c1cccc(F)c1)c1ccc(C(=O)Nc2ccncc2)cc1 (stereo unspecified) | 500 to 5000 nM
61 | NC(CNC(=O)c1ccccc1-c1ccccc1)c1ccc(C(=O)Nc2ccncc2)cc1 (stereo unspecified) | 500 to 5000 nM
62 | NC(CNC(=O)c1cc2ccccc2[nH]1)c1ccc(C(=O)Nc2ccncc2)cc1 (stereo unspecified) | 500 to 5000 nM
63 | NC(CNC(=O)c1cccnc1)c1ccc(C(=O)Nc2ccncc2)cc1 (stereo unspecified) | 500 to 5000 nM
64 | CN(CC(N)c1ccc(C(=O)Nc2ccncc2)cc1)C(=O)C1(c2ccc(F)cc2F)CC1 (stereo unspecified) | 500 to 5000 nM
65 | COCCNC(=O)CC(N)c1ccc(C(=O)Nc2ccncc2)cc1 (stereo unspecified) | 50 to 500 nM
66 | NC(c1ccc(C(=O)Nc2ccncc2)cc1)C1CCCN1C(=O)Cc1ccc(F)cc1F (stereo unspecified) | 50 to 500 nM
67 | NC(CNC(=O)c1ccccc1Nc1ccccc1)c1ccc(C(=O)Nc2ccncc2)cc1 (stereo unspecified) | 500 to 5000 nM
68 | CCOC(=O)CCNC(=O)NCC(N)c1ccc(C(=O)Nc2ccncc2)cc1 (stereo unspecified) | 500 to 5000 nM
69 | NC(CNC(=O)CSc1ncccn1)c1ccc(C(=O)Nc2ccncc2)cc1 (stereo unspecified) | 500 to 5000 nM
70 | N[C@@H](CNC(=O)C1(c2ccc(Cl)cc2)CC1)c1ccc(C(=O)Nc2ccncc2)cc1 | 500 to 5000 nM
71 | NC(CC(=O)NCCc1c(Cl)cccc1Cl)c1ccc(C(=O)Nc2ccncc2)cc1 (stereo unspecified) | 50 to 500 nM
72 | Cn1cccc1C(=O)NCC(N)c1ccc(C(=O)Nc2ccncc2)cc1 (stereo unspecified) | 500 to 5000 nM
73 | NC(CC(=O)NCCc1ccccc1F)c1ccc(C(=O)Nc2ccncc2)cc1 (stereo unspecified) | 50 to 500 nM
74 | CC(=O)NCCNC(=O)CC(N)c1ccc(C(=O)Nc2ccncc2)cc1 (stereo unspecified) | 50 to 500 nM
75 | NC(CC(=O)NCc1ccc(F)cc1)c1ccc(C(=O)Nc2ccncc2)cc1 (stereo unspecified) | 50 to 500 nM
76 | NC(c1ccc(C(=O)Nc2ccncc2)cc1)C1CCCN1C(=O)Cc1ccccc1F (stereo unspecified) | 50 to 500 nM
77 | Cc1cc(Cl)cc(Cl)c1CNC(=O)CC(N)c1ccc(C(=O)Nc2ccncc2)cc1 (stereo unspecified) | 50 to 500 nM
78 | NC(c1ccc(C(=O)Nc2ccncc2)cc1)C1CCCN1C(=O)C1(c2ccc(F)cc2)CC1 (stereo unspecified) | 500 to 5000 nM

Row | SMILES | IC50
79 | NC(CNC(=S)Nc1cccc2ccccc12)c1ccc(C(=O)Nc2ccncc2)cc1 (stereo unspecified) | 50 to 500 nM
80 | CN(CC(N)c1ccc(C(=O)Nc2ccncc2)cc1)C(=O)C1(c2ccc(Cl)cc2)CC1 (stereo unspecified) | 500 to 5000 nM
81 | NC(CNC(=O)c1cccc(Oc2ccccc2)c1)c1ccc(C(=O)Nc2ccncc2)cc1 (stereo unspecified) | 500 to 5000 nM
82 | CCCCC(C)CCC(=O)NCC(N)c1ccc(C(=O)Nc2ccncc2)cc1 (stereo unspecified) | 50 to 500 nM
83 | COc1ccc(C(=O)NCC(N)c2ccc(C(=O)Nc3ccncc3)cc2)cc1 (stereo unspecified) | 500 to 5000 nM
84 | CCNS(=O)(=O)c1cccc(C(=O)NCC(N)c2ccc(C(=O)Nc3ccncc3)cc2)c1 (stereo unspecified) | 500 to 5000 nM
85 | NC(c1ccc(C(=O)Nc2ccncc2)cc1)C1CCCN1C(=O)Cc1cccc(Cl)c1 (stereo unspecified) | 500 to 5000 nM
86 | CCC(Oc1ccccc1)C(=O)NCC(N)c1ccc(C(=O)Nc2ccncc2)cc1 (stereo unspecified) | 50 to 500 nM
87 | NC(c1ccc(C(=O)Nc2ccncc2)cc1)C1CCCN1C(=O)Cc1c(F)cccc1Cl (stereo unspecified) | 500 to 5000 nM
88 | CC(CNC(=O)CC(N)c1ccc(C(=O)Nc2ccncc2)cc1)c1ccc(Cl)cc1 (stereo unspecified) | 50 to 500 nM
89 | NC(CC(=O)NC(c1ccccc1)c1ccccc1)c1ccc(C(=O)Nc2ccncc2)cc1 (stereo unspecified) | 50 to 500 nM
90 | NC(CC(=O)NC1CCc2ccccc21)c1ccc(C(=O)Nc2ccncc2)cc1 (stereo unspecified) | 50 to 500 nM
91 | NC(CC(=O)NCc1cccs1)c1ccc(C(=O)Nc2ccncc2)cc1 (stereo unspecified) | 50 to 500 nM
92 | CC(C)(C(=O)NCC(N)c1ccc(C(=O)Nc2ccncc2)cc1)c1ccc(F)c(Cl)c1 (stereo unspecified) | 50 to 500 nM
93 | NC(CNC(=O)NCc1ccccc1)c1ccc(C(=O)Nc2ccncc2)cc1 (stereo unspecified) | 50 to 500 nM
94 | CC(C)(C(=O)NC[C@H](N)c1ccc(C(=O)Nc2ccncc2)cc1)c1ccc(Cl)cc1 | 500 to 5000 nM
95 | NC(CC(=O)NCc1ccccc1F)c1ccc(C(=O)Nc2ccncc2)cc1 (stereo unspecified) | 50 to 500 nM
96 | NC(CNC(=O)CCc1ccccc1)c1ccc(C(=O)Nc2ccncc2)cc1 (stereo unspecified) | 50 to 500 nM
97 | CC(Cc1c[nH]c2ccccc12)NC(=O)CC(N)c1ccc(C(=O)Nc2ccncc2)cc1 (stereo unspecified) | 50 to 500 nM
98 | CN(CC(N)c1ccc(C(=O)Nc2ccncc2)cc1)C(=O)C(C)(C)c1ccc(Cl)cc1 (stereo unspecified) | 500 to 5000 nM
99 | CN(CC(N)c1ccc(C(=O)Nc2ccncc2)cc1)C(=O)C(C)(C)c1ccsc1 (stereo unspecified) | 500 to 5000 nM
100 | CC1=C(C(=O)NCC(N)c2ccc(C(=O)Nc3ccncc3)cc2)Cc2ccccc21 (stereo unspecified) | 500 to 5000 nM
101 | NC(CC(=O)NC(c1ccccc1)c1ccc(Cl)cc1)c1ccc(C(=O)Nc2ccncc2)cc1 (stereo unspecified) | 50 to 500 nM
